Results on eleven compounds are retold here after ChEMBL document CHEMBL1201862, “PubChem BioAssay data set” (2004).

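Growth conditions: 96-well plates. Treatment: test compound, 48 hours, 5 concentrations. Analysis: linear interpolation between bracketing concentrations; unreached endpoints set to highest concentration. At the GI50, growth is halved.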 Calls of active or inactive are those of the source. Cut-off read from the data, not from the text of the source: active = GI50 up to about 1.1 µM and inactive = higher.

Test systems include ACHN; MDA-MB-435; CAKI-1; SF-539; OVCAR-8; RPMI-8226; OVCAR-3; 786-0; HOP-62; HCT-116; UACC-257; OVCAR-5; HOP-92; SNB-19; OVCAR-4; BT-549; EKVX; HL-60; K562; NCI-H226.
Common to all, as to test: NCI-60 cell line screen, 48 h

As to `C=C(C)C12OC1[C@@]1(C)C(=CC2=O)CCC(O)[C@@H]1C` (stereo partly specified), the GI50 was 0.417 µM (active) with ACHN; 3.29 µM (inactive) with MDA-MB-435; 0.398 µM (active) in the experiment with CAKI-1; 1.97 µM (inactive) in the experiment on SF-539; 1.45 µM (inactive) in the experiment with OVCAR-8; 2.43 µM (inactive) in the experiment with RPMI-8226. Besides, the GI50 in the experiment with OVCAR-3 is 3.68 µM (inactive); with 786-0, 1.64 µM (inactive); in the experiment with HOP-62, 1.4 µM (inactive); with HCT-116, 1.15 µM (inactive); in the experiment with UACC-257, 3.34 µM (inactive); with OVCAR-5, 8.51 µM (inactive). The GI50 is 16.7 µM (inactive) in the experiment on HOP-92; 1.69 µM (inactive) with SNB-19; 3.45 µM (inactive) in the experiment with OVCAR-4; 4.19 µM (inactive) in the experiment with BT-549; 1.94 µM (inactive) in the experiment on EKVX; 1.16 µM (inactive) with HL-60.
Turning to `CCOC(=O)C(c1c[nH]c2ccccc12)(c1c[nH]c2ccccc12)c1c[nH]c2ccccc12`, the GI50 in the experiment on ACHN was 37.1 µM (inactive); with MDA-MB-435, 18.7 µM (inactive); in the experiment with CAKI-1, 29.4 µM (inactive); in the experiment with SF-539, 42.4 µM (inactive); in the experiment with OVCAR-8, 36.2 µM (inactive); in the experiment with RPMI-8226, 11.7 µM (inactive). Further, the GI50 in the experiment with OVCAR-3 is 27.5 µM (inactive); in the experiment on 786-0, 44.5 µM (inactive); with HOP-62 it was 39.6 µM (inactive); with HCT-116, 29.2 µM (inactive); in the experiment on UACC-257 it was 34 µM (inactive); with OVCAR-5, 55 µM (inactive). The GI50 in the experiment with HOP-92 is 37 µM (inactive); with SNB-19, 26.5 µM (inactive); with BT-549, 44.4 µM (inactive); in the experiment with EKVX, 37.7 µM (inactive); in the experiment with K562, 12.9 µM (inactive); in the experiment on HL-60 it was 15.9 µM (inactive).
`Cc1nn(C(=O)c2ccccc2O)c2c1C(c1ccc(O)cc1)SC(=N)N2` (stereo unspecified): the GI50 with ACHN is 0.951 µM (active); in the experiment with MDA-MB-435, 1.21 µM (inactive); in the experiment on CAKI-1 it was > 2.32 µM (inactive); in the experiment on SF-539 it was 1.36 µM (inactive); with OVCAR-8, > 2.47 µM (inactive); in the experiment with OVCAR-3, > 2.66 µM (inactive). Also, the GI50 in the experiment on 786-0 is > 2.56 µM (inactive); with HCT-116, 1.49 µM (inactive); with UACC-257, 0.805 µM (active); in the experiment with OVCAR-5, > 6.35 µM (inactive); with SNB-19 it was 8.41 µM (inactive); with OVCAR-4 it was > 2.12 µM (inactive). Also, the GI50 is > 10 µM (inactive) with BT-549, > 4 µM (inactive) in the experiment on EKVX, 0.955 µM (active) in the experiment on K562 and > 2.03 µM (inactive) in the experiment with HL-60.
`COc1ccc(/N=N/C(=N\c2ccc(F)cc2)c2ccc(N(CCC#N)CCC#N)cc2)cc1`: the GI50 with ACHN is 82.8 µM (inactive); in the experiment on MDA-MB-435, 39.2 µM (inactive); with CAKI-1 it was 81.8 µM (inactive); in the experiment on SF-539 it was > 100 µM (inactive); in the experiment with OVCAR-8, 33.5 µM (inactive); in the experiment with RPMI-8226 it was 39.2 µM (inactive). In addition, the GI50 was 30.9 µM (inactive) in the experiment with OVCAR-3; 42.3 µM (inactive) in the experiment on 786-0; 41.8 µM (inactive) with HOP-62; 32.6 µM (inactive) in the experiment on HCT-116; > 100 µM (inactive) in the experiment on NCI-H226; 19 µM (inactive) in the experiment with UACC-257. Also, the GI50 is 52.1 µM (inactive) with OVCAR-5; 25.6 µM (inactive) with HOP-92; 31.9 µM (inactive) in the experiment on SNB-19; 40.9 µM (inactive) with OVCAR-4; 17.5 µM (inactive) in the experiment on BT-549; 34.4 µM (inactive) in the experiment with EKVX. In addition, the GI50 in the experiment on K562 was 27.6 µM (inactive).
Consider `CC(C)CCCC(C)[C@H]1CC[C@H]2[C@@H]3CC[C@H]4C[C@@H](CCC=C(c5cc(Cl)c(O)c(C(=O)OC(C)C)c5)c5cc(Cl)c(O)c(C(=O)OC(C)C)c5)CC[C@]4(C)[C@H]3CC[C@]12C` (stereo partly specified), for which the GI50 in the experiment with MDA-MB-435, in the experiment with CAKI-1, in the experiment with SF-539, in the experiment with OVCAR-8, in the experiment with RPMI-8226 and with OVCAR-3 was > 50 µM (inactive) in each case. Besides, the GI50 in the experiment with 786-0, with HOP-62, in the experiment on HCT-116, with OVCAR-5, in the experiment on HOP-92 and with SNB-19 was > 50 µM (inactive) throughout. Further, the GI50 with OVCAR-4, in the experiment with BT-549, in the experiment on EKVX, in the experiment on K562 and in the experiment on HL-60 was > 50 µM (inactive) throughout.
Take `NS(=O)(=O)c1ccc(C(=O)O)cc1` [CARZENIDE]: the GI50 in the experiment on ACHN, in the experiment on MDA-MB-435, in the experiment with CAKI-1, in the experiment with OVCAR-8, in the experiment on RPMI-8226 and in the experiment with OVCAR-3 was > 100 µM (inactive) in each case. In addition, the GI50 in the experiment on 786-0 was > 100 µM (inactive); in the experiment with HOP-62, > 100 µM (inactive); in the experiment on HCT-116, > 100 µM (inactive); in the experiment on OVCAR-5, > 100 µM (inactive); with HOP-92 it was 97.5 µM (inactive); with SNB-19 it was > 100 µM (inactive). In addition, the GI50 with OVCAR-4, with BT-549, with EKVX, in the experiment with K562 and in the experiment with HL-60 was > 100 µM (inactive) in each case.
Consider `O=C1OC[C@@H]2Cc3cc4c(cc3[C@H](c3ccc5c(c3)OCO5)[C@@H]12)OCO4`, for which the GI50 in the experiment with ACHN is > 25 µM (inactive); with MDA-MB-435 it was 13.3 µM (inactive); in the experiment on CAKI-1, > 25 µM (inactive); in the experiment on OVCAR-8 it was > 25 µM (inactive); with RPMI-8226, > 25 µM (inactive); in the experiment on OVCAR-3, > 25 µM (inactive). Besides, the GI50 with 786-0 is > 25 µM (inactive); in the experiment with HOP-62, 24.7 µM (inactive); in the experiment with HCT-116, 18.2 µM (inactive); with UACC-257, > 25 µM (inactive); in the experiment with OVCAR-5, > 25 µM (inactive); in the experiment with SNB-19 it was > 25 µM (inactive). For the same compound, the GI50 in the experiment with OVCAR-4 was 13.9 µM (inactive); in the experiment with BT-549, > 25 µM (inactive); in the experiment with EKVX, > 25 µM (inactive); in the experiment on K562 it was 12 µM (inactive); with HL-60, 10.6 µM (inactive).
On to `Nc1ncnc2c1cnn2COCC(O)CO` (stereo unspecified), for which the GI50 in the experiment with ACHN, in the experiment on MDA-MB-435, with CAKI-1, in the experiment with SF-539, in the experiment with OVCAR-8 and in the experiment on RPMI-8226 was > 100 µM (inactive) throughout. The GI50 in the experiment on OVCAR-3, in the experiment on 786-0, in the experiment with HOP-62, in the experiment with HCT-116, in the experiment with NCI-H226 and in the experiment with UACC-257 was > 100 µM (inactive) throughout. The GI50 with OVCAR-5, with HOP-92, in the experiment on SNB-19, in the experiment with OVCAR-4, in the experiment on BT-549 and in the experiment on EKVX was > 100 µM (inactive) throughout. For the same compound, in the experiment with K562, the GI50 was > 100 µM (inactive).
Turning to `Cn1c(-c2ccccc2)c2cc3nc4ccccc4nc3cc2c1-c1ccccc1`, the GI50 with ACHN is 17.7 µM (inactive); in the experiment on MDA-MB-435 it was 5.79 µM (inactive); in the experiment on CAKI-1, 43.3 µM (inactive); in the experiment on SF-539, 17.4 µM (inactive); with OVCAR-8, 22.1 µM (inactive); in the experiment on RPMI-8226, 12.1 µM (inactive). Also, the GI50 was 20.4 µM (inactive) in the experiment on OVCAR-3; 10.2 µM (inactive) with HOP-62; 23.2 µM (inactive) with HCT-116; 56.2 µM (inactive) in the experiment with UACC-257; 52.2 µM (inactive) with OVCAR-5; 25.3 µM (inactive) with HOP-92. The GI50 in the experiment on SNB-19 is 20.2 µM (inactive); in the experiment on OVCAR-4, 30 µM (inactive); in the experiment with BT-549, 21.6 µM (inactive); in the experiment on EKVX, 31 µM (inactive); in the experiment with K562, 17.3 µM (inactive); in the experiment on HL-60 it was 20.1 µM (inactive).
For `OCCOCCN1CCN(CCCN2c3ccccc3Sc3ccc(C(F)(F)F)cc32)CC1`, the GI50 was 17.7 µM (inactive) in the experiment on ACHN; 11.1 µM (inactive) in the experiment on MDA-MB-435; 15.3 µM (inactive) in the experiment on CAKI-1; 12.4 µM (inactive) in the experiment on SF-539; 15.2 µM (inactive) in the experiment on OVCAR-8; 3.17 µM (inactive) with RPMI-8226. The GI50 with OVCAR-3 is 17.7 µM (inactive); in the experiment on 786-0, 16.6 µM (inactive); in the experiment with HOP-62 it was 17.6 µM (inactive); in the experiment on HCT-116 it was 7.91 µM (inactive); in the experiment with NCI-H226 it was 16.4 µM (inactive); with UACC-257 it was 5.15 µM (inactive). Besides, the GI50 in the experiment with OVCAR-5 was 14.3 µM (inactive); in the experiment on HOP-92, 14.1 µM (inactive); in the experiment with SNB-19, 14.4 µM (inactive); in the experiment with OVCAR-4, 15.7 µM (inactive); with BT-549, 19.8 µM (inactive); with EKVX it was 14.8 µM (inactive). Moreover, the GI50 with K562 is 2.79 µM (inactive).
With `c1ccc2c(c1)nc1n2CNC1`, the GI50 with ACHN, with MDA-MB-435, in the experiment with CAKI-1, with SF-539, in the experiment with RPMI-8226 and in the experiment with OVCAR-3 was > 100 µM (inactive) each time. The GI50 in the experiment on 786-0, in the experiment with HOP-62, with HCT-116, in the experiment with UACC-257, with OVCAR-5 and in the experiment on HOP-92 was > 100 µM (inactive) throughout. For the same compound, the GI50 in the experiment with SNB-19, in the experiment on OVCAR-4, in the experiment with BT-549, in the experiment with EKVX, with K562 and in the experiment on HL-60 was > 100 µM (inactive) throughout.
